Columns and labels:
Format in all cases: cell-based, human
HT29 = assay: NCI screening panel, HT29 (Colon Cancer)
Description: (§1) Representative compounds of Formula I were screened using the National Cancer Institute (NCI) screening panel, which consists of a panel of human tumor cell lines, representing leukemia, melanoma, and cancers of the lung, colon, ovary, breast, prostate and renal system.
(§2) After 24 h, two plates of each cell line are fixed in situ with TCA, to represent a measurement of the cell population for each cell line at the time of drug addition (Tz). Experimental drugs are solubilised in dimethyl sulfoxide at 400-fold the desired final maximum test concentration and stored frozen prior to use. At the time of drug addition, an aliquot of frozen concentrate is thawed and diluted to twice the desired final maximum test concentration with complete medium containing 50 μg/mL gentamicin. Additional four, 10-fold or ½ log serial dilutions are made to provide a total of five drug concentrations plus control. Aliquots of 100 μl of these different drug dilutions are added to the appropriate microtiter wells already containing 100 μl of medium, resulting in the required final drug concentrations.
(§3) Following drug addition, the plates are incubated for an additional 48 h at 37° C., 5% CO2, 95% air, and 100% relative humidity. For adherent cells, the assay is terminated by the addition of cold TCA (trichloroacetic acid). Cells are fixed in situ by the gentle addition of 50 μl of cold 50% (w/v) TCA (final concentration, 10% TCA) and incubated for 60 minutes at 4° C. The supernatant is discarded, and the plates are washed five times with tap water and air dried. Sulforhodamine B (SRB) solution (100 μl) at 0.4% (w/v) in 1% acetic acid is added to each well, and plates are incubated for 10 minutes at room temperature. After staining, unbound dye is removed by washing five times with 1% acetic acid and the plates are air dried. Bound stain is subsequently solubilised with 10 mM trizma base, and the absorbance is read on an automated plate reader at a wavelength of 515 nm. For suspension cells, the methodology is the same except that the assay is terminated by fixing settled cells at the bottom of the wells by gently adding 50 μl of 80% TCA (final concentration, 16% TCA). Using the seven absorbance measurements [time zero, (Tz), control growth, (C), and test growth in the presence of drug at the five concentration levels (Ti)], the percentage growth is calculated at each of the drug concentrations levels. Percentage growth inhibition is calculated as: [(Ti−Tz)/(C−Tz)]×100 for concentrations for which Ti>/=Tz and [(Ti−Tz)/Tz]×100 for concentrations for which Ti<Tz.
(§4) Three dose response parameters are calculated for each experimental agent. Growth inhibition of 50% (GI50) is calculated from [(Ti−Tz)/(C−Tz)]×100=50, which is the drug concentration resulting in a 50% reduction in the net protein increase (as measured by SRB staining) in control cells during the drug incubation. The drug concentration resulting in total growth inhibition (TGI) is calculated from Ti=Tz. The LC50 (concentration of drug resulting in a 50% reduction in the measured protein at the end of the drug treatment as compared to that at the beginning) indicating a net loss of cells following treatment is calculated from [(Ti−Tz)/Tz]×100=−50. Values are calculated for each of these three parameters if the level of activity is reached. However, if the effect is not reached or is exceeded, the value for that parameter is expressed as greater or less than the maximum or minimum concentration tested.

UO-31 = assay: NCI screening panel, UO-31 (Renal Cancer)
Description: as §1, §2, §3, §4

OVCAR-8 = assay: NCI screening panel, OVCAR-8 (Ovarian Cancer)
Description: as §1, §2, §3, §4

NCI-H322M = assay: NCI screening panel, NCI-H322M (Non-Small Cell Lung Cancer)
Description: as §1, §2, §3, §4

SN12C = assay: NCI screening panel, SN12C (Renal Cancer)
Description: as §1, §2, §3, §4

DU-145 = assay: NCI screening panel, DU-145 (Prostate Cancer)
Description: as §1, §2, §3, §4

MDA-MB-435 = assay: NCI screening panel, MDA-MB-435 (Melanoma)
Description: as §1, §2, §3, §4

OVCAR-5 = assay: NCI screening panel, OVCAR-5 (Ovarian Cancer)
Description: as §1, §2, §3, §4

BT-549 = assay: NCI screening panel, BT-549 (Breast Cancer)
Description: as §1, §2, §3, §4

RXF 393 = assay: NCI screening panel, RXF 393 (Renal Cancer)
Description: as §1, §2, §3, §4

SK-MEL-5 = assay: NCI screening panel, SK-MEL-5 (Melanoma)
Description: as §1, §2, §3, §4

SNB-75 = assay: NCI screening panel, SNB-75 (CNS Cancer)
Description: as §1, §2, §3, §4

MCF7 = assay: NCI screening panel, MCF7 (Breast Cancer)
Description: as §1, §2, §3, §4

SF-539 = assay: NCI screening panel, SF-539 (CNS Cancer)
Description: as §1, §2, §3, §4

HOP-62 = assay: NCI screening panel, HOP-62 (Non-Small Cell Lung Cancer)
Description: as §1, §2, §3, §4

U251 = assay: NCI screening panel, U251 (CNS Cancer)
Description: as §1, §2, §3, §4

SF-295 = assay: NCI screening panel, SF-295 (CNS Cancer)
Description: as §1, §2, §3, §4

CAKI-1 = assay: NCI screening panel, CAKI-1 (Renal Cancer)
Description: as §1, §2, §3, §4

HL-60(TB) = assay: NCI screening panel, HL-60(TB) (Leukemia)
Description: as §1, §2, §3, §4

## CC(C)C[C@H](NC(=O)[C@H](COC(F)F)NC(=O)CN1CCOCC1)C(=O)N[C@@H](COC(F)F)C(=O)N[C@@H](Cc1ccccc1)C(=O)[C@@]1(C)CO1 [Example 4, (2S)-N-[(1S)-2-[[(1S)-1-benzyl-2-[(2R)-2-methyloxiran-2-yl]-2-oxo-ethyl]amino]-1-(difluoromethoxymethyl)-2-oxo-ethyl]-2-[[(2S)-3-(difluoromethoxy)-2-[(2-mor-pholinoacetyl)amino]propanoyl]amino]-4 methyl-pentanamide]
HT29
  Log10GI50: −7.50
  Log10LC50: >−4.00
  Log10TGI50: −5.63
UO-31
  Log10GI50: −5.77
  Log10LC50: −4.22
  Log10TGI50: −5.24
OVCAR-8
  Log10GI50: −6.67
  Log10LC50: >−4.00
  Log10TGI50: −5.89
NCI-H322M
  Log10GI50: −6.73
  Log10LC50: −4.18
  Log10TGI50: −5.81
SN12C
  Log10GI50: −7.20
  Log10LC50: −4.79
  Log10TGI50: −6.47
DU-145
  Log10GI50: −7.19
  Log10LC50: >−4.00
  Log10TGI50: −4.91
MDA-MB-435
  Log10GI50: −7.79
  Log10LC50: −7.09
  Log10TGI50: −7.44
OVCAR-5
  Log10GI50: −7.29
  Log10LC50: >−4.00
  Log10TGI50: −6.07
BT-549
  Log10GI50: −7.64
  Log10TGI50: −6.91
RXF 393
  Log10GI50: −6.83
  Log10LC50: −6.05
  Log10TGI50: −6.44
SK-MEL-5
  Log10GI50: −7.33
  Log10LC50: −5.71
  Log10TGI50: −6.60
SNB-75
  Log10GI50: −7.70
  Log10LC50: −6.25
  Log10TGI50: −7.25
MCF7
  Log10GI50: <−8.00
  Log10LC50: >−4.00
  Log10TGI50: −4.82
SF-539
  Log10GI50: −7.64
  Log10LC50: −5.26
  Log10TGI50: −7.22
HOP-62
  Log10GI50: −7.65
  Log10LC50: >−4.00
  Log10TGI50: −6.98
U251
  Log10GI50: −7.44
  Log10LC50: −4.62
  Log10TGI50: −6.48
SF-295
  Log10GI50: −7.48
  Log10LC50: −5.22
  Log10TGI50: −6.60
CAKI-1
  Log10GI50: −6.20
  Log10LC50: >−4.00
  Log10TGI50: −5.22
HL-60(TB)
  Log10GI50: −7.44
  Log10LC50: >−4.00
  Log10TGI50: −6.44

## CC(C)C[C@H](NC(=O)[C@H](COC(F)F)NC(=O)[C@H](COC(F)F)NC(=O)[C@H](CCc1ccccc1)NC(=O)CN1CCOCC1)C(=O)[C@@]1(C)CO1 [Example 7, (2S)-N-[(1S)-1-(difluoromethoxymethyl)-2-[[(1S)-1-(difluoromethoxymethyl)-2-[[(1S)-3-methyl-1-[(2R)-2-methyloxirane-2-carbo-nyl]butyl]amino]-2-oxo-ethyl]amino]-2-oxo-ethyl]-2-[(2-morpholinoacetyl)amino]-4-phenyl-butanamide]
HT29
  Log10GI50: <−8.00
  Log10LC50: >−4.00
  Log10TGI50: −4.93
UO-31
  Log10GI50: −5.97
  Log10LC50: −4.70
  Log10TGI50: −5.45
OVCAR-8
  Log10GI50: −6.94
  Log10LC50: >−4.00
  Log10TGI50: −5.93
NCI-H322M
  Log10GI50: −7.04
  Log10LC50: −4.81
  Log10TGI50: −6.35
SN12C
  Log10GI50: −7.46
  Log10LC50: −5.85
  Log10TGI50: −6.77
DU-145
  Log10GI50: −7.42
  Log10LC50: >−4.00
  Log10TGI50: −4.75
MDA-MB-435
  Log10GI50: −7.83
  Log10LC50: −7.12
  Log10TGI50: −7.47
OVCAR-5
  Log10GI50: −7.31
  Log10LC50: >−4.00
  Log10TGI50: −6.14
BT-549
  Log10GI50: −7.68
  Log10LC50: >−4.00
  Log10TGI50: −7.07
RXF 393
  Log10GI50: −6.93
  Log10LC50: −6.22
  Log10TGI50: −6.57
SK-MEL-5
  Log10GI50: −7.55
  Log10LC50: −6.35
  Log10TGI50: −6.99
SNB-75
  Log10GI50: −7.65
  Log10LC50: −4.01
  Log10TGI50: −7.16
MCF7
  Log10GI50: <−8.00
  Log10LC50: >−4.00
  Log10TGI50: >−4.00
SF-539
  Log10GI50: −7.74
  Log10LC50: −4.26
  Log10TGI50: −7.20
HOP-62
  Log10GI50: −7.63
  Log10LC50: >−4.00
  Log10TGI50: −7.00
U251
  Log10GI50: −7.63
  Log10LC50: −5.04
  Log10TGI50: −6.79
SF-295
  Log10GI50: −7.60
  Log10LC50: −6.15
  Log10TGI50: −6.97
CAKI-1
  Log10GI50: −6.40
  Log10LC50: >−4.00
  Log10TGI50: −5.62
HL-60(TB)
  Log10GI50: −7.46
  Log10LC50: >−4.00
  Log10TGI50: −6.48

## CC(C)C[C@H](NC(=O)[C@H](Cc1ccccc1)NC(=O)[C@H](COC(F)F)NC(=O)[C@H](COC(F)F)NC(=O)CN1CCOCC1)C(=O)[C@@]1(C)CO1 [Example 11, (2S)-2-[[(2S)-3-(difluoromethoxy)-2-[[(2S)-3-(difluoromethoxy)-2-[(2-morpholinoacetyl)-amino]propanoyl]amino]propanoyl]amino]-N-[(1S)-3-methyl-1-[(2R)-2-methyloxirane-2-carbonyl]butyl]-3-phenyl-propanamide]
HT29
  Log10GI50: −7.70
  Log10LC50: >−4.00
  Log10TGI50: −5.91
UO-31
  Log10GI50: −6.17
  Log10LC50: −4.24
  Log10TGI50: −5.47
OVCAR-8
  Log10GI50: −6.94
  Log10LC50: >−4.00
  Log10TGI50: >−4.00
NCI-H322M
  Log10GI50: −6.85
  Log10LC50: −4.06
  Log10TGI50: −6.03
SN12C
  Log10GI50: −7.20
  Log10LC50: −5.39
  Log10TGI50: −6.50
DU-145
  Log10GI50: −7.31
  Log10LC50: >−4.00
  Log10TGI50: −5.94
MDA-MB-435
  Log10GI50: −7.90
  Log10LC50: −7.24
  Log10TGI50: −7.57
OVCAR-5
  Log10GI50: −7.37
  Log10LC50: >−4.00
  Log10TGI50: −6.46
BT-549
  Log10GI50: −7.76
  Log10LC50: >−4.00
  Log10TGI50: −7.06
RXF 393
  Log10GI50: −6.98
  Log10LC50: −6.23
  Log10TGI50: −6.60
SK-MEL-5
  Log10GI50: −7.45
  Log10LC50: −6.23
  Log10TGI50: −6.83
SNB-75
  Log10GI50: −7.62
  Log10LC50: >−4.00
  Log10TGI50: −7.15
MCF7
  Log10GI50: <−8.00
  Log10LC50: >−4.00
  Log10TGI50: >−4.00
SF-539
  Log10GI50: −7.66
  Log10LC50: −5.48
  Log10TGI50: −7.21
HOP-62
  Log10GI50: −7.56
  Log10LC50: >−4.00
  Log10TGI50: −4.94
U251
  Log10GI50: −7.59
  Log10LC50: −4.04
  Log10TGI50: −6.71
SF-295
  Log10GI50: −5.96
  Log10LC50: −5.17
  Log10TGI50: −5.56
CAKI-1
  Log10GI50: −6.39
  Log10LC50: >−4.00
  Log10TGI50: −5.55
HL-60(TB)
  Log10GI50: −7.46
  Log10LC50: >−4.00
  Log10TGI50: −6.42

From patent publication US20150218212A1, “FLUORINATED EPOXYKETONE-BASED TETRAPEPTIDE COMPOUNDS AND USES THEREOF AS PROTEASOME INHIBITORS” (FLUORINOV PHARMA INC., priority 2012, published 2015)
